# Measured values published in US7238701B2, “Substituted tetrahydrobenzothienopyrimidinamine compounds useful for treating hyper-proliferative disorders” (Bayer Pharmaceuticals Corporation, priority 2003, dated 2007).
# Tests used:
# [1] = system: BT474 (human breast carcinoma); assay: In vitro tumor cell proliferation assay (Cell Titer-Glo luminescent cell viability), BT474 cells; assay type: cell-based; details: BT-474, 72 hours drug exposure, 10% Fetal Bovine Serum, ATP luminescence readout, read-out: IC50 (50% inhibition of cell proliferation)
# Summary of the method: (§1)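 ATP luminescence (CellTiter-Glo) measured proliferation after 72 h compound exposure at 37 °C, giving IC50 values. Serial dilutions spanning 64 pM–100 μM in 0.1% DMSO were applied one day after plating 2.5×10^3 cells/well in RPMI plus 10% fetal bovine serum.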
# [2] = system: A431cells (human epidermoid carcinoma); assay: In vitro tumor cell proliferation assay (Cell Titer-Glo luminescent cell viability), A431 cells; assay type: cell-based; details: A-431, 72 h, 72 hours drug exposure, 10% Fetal Bovine Serum, ATP luminescence readout, read-out: IC50 (50% inhibition of cell proliferation)
# Summary of the method: as §1
IC50 [1],IC50 [2],Structure (SMILES)
< 5 µM,< 5 µM,"CS(=O)(=O)CCNCCC1CCc2c(sc3ncnc(Nc4cccc(Br)c4)c23)C1 (stereo not shown) [Example 84, N-(3-bromophenyl)-7-(2-{[2-(methylsulfonyl)ethyl]amino}ethyl)-5,6,7,8-tetrahydro[1]benzothieno[2,3-d]pyrimidin-4-amine]"
< 5 µM,< 50 µM,"Fc1cccc(COc2ccc(Nc3ncnc4sc5c(c34)CCC(CCNCCN3CCOCC3)C5)cc2Cl)c1 (stereo not shown) [Example 166, N-{3-chloro-4-[(3-fluorobenzyl)oxy]phenyl}-7-{2-[(2-morpholin-4-ylethyl)amino]ethyl}-5,6,7,8-tetrahydro[1]benzothieno[2,3-d]pyrimidin-4-amine]"
< 5 µM,< 5 µM,"COCCN1CCN(CCC2CCc3c(sc4ncnc(Nc5cccc(Br)c5)c34)C2)CC1 (stereo not shown) [Example 93, N-(3-bromophenyl)-7-{2-[4-(2-methoxyethyl)-1-piperazinyl]ethyl}-5,6,7,8-tetrahydro[1]benzothieno[2,3-d]pyrimidin-4-amine]"
< 5 µM,< 5 µM,"CS(=O)(=O)OCCC1CCc2c(sc3ncnc(Nc4ccc(OCc5ccccn5)c(Cl)c4)c23)C1 (stereo not shown) [Example 175, Methanesulfonic acid 2-{4-[3-chloro-4-(pyridin-2-ylmethoxy)-phenylamino]-5,6,7,8-tetrahydro-benzo[4,5]thieno[2,3-d]pyrimidin-7-yl}-ethyl ester]"
< 5 µM,< 50 µM,"CN(C)[C@@H]1CCN(CCC2CCc3c(sc4ncnc(Nc5ccc(OCc6ccccn6)c(Cl)c5)c34)C2)C1 (stereo partly drawn) [Example 181, N-[3-chloro-4-(pyridin-2-ylmethoxy)phenyl]-7-{2-[(3R)-3-(dimethylamino)pyrrolidin-1-yl]ethyl}-5,6,7,8-tetrahydro[1]benzothieno[2,3-d]pyrimidin-4-amine]"
< 50 µM,< 50 µM,"COCCN(C)C(=O)CC1CCc2c(sc3ncnc(Nc4ccc(OCc5ccc(F)cc5)c(Cl)c4)c23)C1 (stereo not shown) [Example 151, 2-[4-({3-chloro-4-[(4-fluorobenzyl)oxy]phenyl}amino)-5,6,7,8-tetrahydro[1]benzothieno[2,3-d]pyrimidin-7-yl]-N-(2-methoxyethyl)-N-methylacetamide]"
< 50 µM,< 50 µM,"O=C(CC1CCc2c(sc3ncnc(Nc4cccc(Br)c4)c23)C1)N1CCCCC1 (stereo not shown) [Example 71, N-(3-bromophenyl)-7-[2-oxo-2-(1-piperidinyl)ethyl]-5,6,7,8-tetrahydro[1]benzothieno[2,3-d]pyrimidin-4-amine]"
< 5 µM,< 5 µM,"OCCC1CCc2c(sc3ncnc(Nc4ccc5c(cnn5Cc5ccccc5)c4)c23)C1 (stereo not shown) [Example 203, 2-[4-(1-Benzyl-1H-indazol-5-ylamino)-5,6,7,8-tetrahydro-benzo[4,5]thieno[2,3-d]pyrimidin-7-yl]-ethanol]"
< 5 µM,< 50 µM,"Cc1ccc(Oc2ccc(Nc3ncnc4sc5c(c34)CCC(CCNCCN3CCOCC3)C5)cc2C)cn1 (stereo not shown) [Example 220, N-{3-methyl-4-[(6-methylpyridin-3-yl)oxy]phenyl}-7-{2-[(2-morpholin-4-ylethyl)amino]ethyl}-5,6,7,8-tetrahydro[1]benzothieno[2,3-d]pyrimidin-4-amine]"
< 5 µM,< 50 µM,"O=C(CC1CCc2c(sc3ncnc(Nc4ccc(F)c(Cl)c4)c23)C1)N1CCCCC1 (stereo not shown) [Example 67, N-(3-chloro-4-fluorophenyl)-7-[2-oxo-2-(1-piperidinyl)ethyl]-5,6,7,8-tetrahydro[1]benzothieno[2,3-d]pyrimidin-4-amine]"
< 5 µM,< 5 µM,"Clc1cc(Nc2ncnc3sc4c(c23)CCC(CCN2CCCC2)C4)ccc1OCc1ccccn1 (stereo not shown) [Example 190, N-[3-chloro-4-(pyridin-2-ylmethoxy)phenyl]-7-(2-pyrrolidin-1-ylethyl)-5,6,7,8-tetrahydro[1]benzothieno[2,3-d]pyrimidin-4-amine]"
< 5 µM,< 50 µM,"CCOC(=O)CC1CCc2c(sc3ncnc(Nc4ccc(OCc5cccc(F)c5)c(Cl)c4)c23)C1 (stereo not shown) [Example 136, {4-[3-Chloro-4-(3-fluoro-benzyloxy)-phenylamino]-5,6,7,8-tetrahydro-benzo[4,5]thieno[2,3-d]pyrimidin-7-yl}-acetic acid ethyl ester]"
< 5 µM,< 50 µM,"c1ccc(Cn2ncc3cc(Nc4ncnc5sc6c(c45)CCC(CCN4CCCCC4)C6)ccc32)cc1 (stereo not shown) [Example 239, (1-Benzyl-1H-indazol-5-yl)-[7-(2-piperidine-1-yl-ethyl)-5,6,7,8-tetrahydro-benzo[4,5]thieno[2,3-d]pyrimidin-4-yl]-amine]"
< 5 µM,< 5 µM,"CN(C)[C@@H]1CCN(CC2CCc3c(sc4ncnc(Nc5cccc(Br)c5)c34)C2)C1 (stereo partly drawn) [Example 66, N-(3-bromophenyl)-7-{[(3R)-3-(dimethylamino)-1-pyrrolidinyl]methyl}-5,6,7,8-tetrahydro[1]benzothieno[2,3-d]pyrimidin-4-amine]"
< 5 µM,< 5 µM,"COCCN1CCN(CCC2CCc3c(sc4ncnc(Nc5ccc(OCc6cccc(F)c6)c(Cl)c5)c34)C2)CC1 (stereo not shown) [Example 168, N-{3-chloro-4-[(3-fluorobenzyl)oxy]phenyl}-7-{2-[4-(2-methoxyethyl)piperazin-1-yl]ethyl}-5,6,7,8-tetrahydro[1]benzothieno[2,3-d]pyrimidin-4-amine]"
< 5 µM,< 5 µM,"Brc1cccc(Nc2ncnc3sc4c(c23)CCC(CCN2CCCCC2)C4)c1 (stereo not shown) [Example 79, N-(3-bromophenyl)-7-[2-(1-piperidinyl)ethyl]-5,6,7,8-tetrahydro[1]benzothieno[2,3-d]pyrimidin-4-amine]"
< 5 µM,< 50 µM,"OCCNCCC1CCc2c(sc3ncnc(Nc4ccc(OCc5ccccn5)c(Cl)c4)c23)C1 (stereo not shown) [Example 180, 2-{[2-(4-{[3-chloro-4-(pyridin-2-ylmethoxy)phenyl]amino}-5,6,7,8-tetrahydro[1]benzothieno[2,3-d]pyrimidin-7-yl)ethyl]amino}ethanol]"
< 50 µM,< 50 µM,"COCCN(C)C(=O)C1CCc2c(sc3ncnc(Nc4ccc(F)c(Cl)c4)c23)C1 (stereo not shown) [Example 8, 4-[(3-chloro-4-fluorophenyl)amino]-N-(2-methoxyethyl)-N-methyl-5,6,7,8-tetrahydro[1]benzothieno[2,3-d]pyrimidine-7-carboxamide]"
< 5 µM,< 5 µM,CN1CCN(CC2CCc3c(sc4ncnc(Nc5ccc(Br)cc5F)c34)C2)CC1 (stereo not shown) [Example 22]
< 5 µM,< 5 µM,"Cc1ccc(Oc2ccc(Nc3ncnc4sc5c(c34)CCC(CCN(C)CCO)C5)cc2C)cn1 (stereo not shown) [Example 222, 2-(methyl{2-(4-({3-methyl-4-[(6-methylpyridin-3-yl)oxy]phenyl}amino)-5,6,7,8-tetrahydro[1]benzothieno[2,3-d]pyrimidin-7-yl]ethyl}amino)ethanol]"
< 5 µM,< 5 µM,"CN(C)CCNCCC1CCc2c(sc3ncnc(Nc4ccc(F)c(Cl)c4)c23)C1 (stereo not shown) [Example 98, N^1-(2-{4-[(3-chloro-4-fluorophenyl)amino]-5,6,7,8-tetrahydro[1]benzothieno[2,3-d]pyrimidin-7-yl}ethyl)-N^2,N^2-dimethyl-1,2-ethanediamine]"
< 50 µM,< 5 µM,O=C(CC1CCc2c(sc3ncnc(Nc4cccc(Br)c4)c23)C1)N1CCOCC1 (stereo not shown) [Example 70]
< 50 µM,< 50 µM,"CN1CCN(C(=O)CC2CCc3c(sc4ncnc(Nc5cccc(Br)c5)c34)C2)CC1 (stereo not shown) [Example 68, N-(3-bromophenyl)-7-[2-(4-methyl-1-piperazinyl)-2-oxoethyl]-5,6,7,8-tetrahydro[1]benzothieno[2,3-d]pyrimidin-4-amine]"
< 5 µM,< 5 µM,"CN(C)CCNCCC1CCc2c(sc3ncnc(Nc4ccc(OCc5cccc(F)c5)c(Cl)c4)c23)C1 (stereo not shown) [Example 162, N′-{2-[4-({3-chloro-4-[(3-fluorobenzyl)oxy]phenyl}amino)-5,6,7,8-tetrahydro[1]benzothieno[2,3-d]pyrimidin-7-yl]ethyl}-N,N-dimethylethane-1,2-diamine]"
< 5 µM,< 5 µM,"Brc1cccc(Nc2ncnc3sc4c(c23)CCC(CCNCCN2CCOCC2)C4)c1 (stereo not shown) [Example 78, N-(3-bromophenyl)-7-(2-{[2-(4-morpholinyl)ethyl]amino}ethyl)-5,6,7,8-tetrahydro[1]benzothieno[2,3-d]pyrimidin-4-amine]"
< 50 µM,< 50 µM,"COCCNC(=O)C1CCc2c(sc3ncnc(Nc4ccc(Br)cc4F)c23)C1 (stereo not shown) [Example 23, 4-[(4-bromo-2-fluorophenyl)amino]-N-(2-methoxyethyl)-5,6,7,8-tetrahydro[1]benzothieno[2,3-d]pyrimidin-7-carboxamide]"
< 5 µM,< 5 µM,"Fc1ccc(Nc2ncnc3sc4c(c23)CCC(CCN2CCCCC2)C4)cc1Cl (stereo not shown) [Example 73, N-(3-chloro-4-fluorophenyl)-7-[2-(1-piperidinyl)ethyl]-5,6,7,8-tetrahydro[1]benzothieno[2,3-d]pyrimidin-4-amine]"
< 5 µM,< 50 µM,"Clc1cc(Nc2ncnc3sc4c(c23)CCC(CCn2ccnc2)C4)ccc1OCc1ccccn1 (stereo not shown) [Example 182, N-[3-chloro-4-(pyridin-2-ylmethoxy)phenyl]-7-[2-(1H-imidazol-1-yl)ethyl]-5,6,7,8-tetrahydro[1]benzothieno[2,3-d]pyrimidin-4-amine]"
< 5 µM,< 50 µM,"COCCC1CCc2c(sc3ncnc(Nc4ccc(F)c(Cl)c4)c23)C1 (stereo not shown) [Example 101, N-(3-chloro-4-fluorophenyl)-7-(2-methoxyethyl)-5,6,7,8-tetrahydro[1]benzothieno[2,3-d]pyrimidin-4-amine]"
